# In patent US12612412B2, “Antiviral heterocyclic compounds” (Enanta Pharmaceuticals, Inc., priority 2021, dated 2026):
# Test system: genotype A, "Long" strain RSV
# Assay: RSV-A assay (CPE protection in Hep-2 cells, ATPlite readout)
# Assay type: cell-based, Human respiratory syncytial virus (HRSV)
# Settings: human respiratory syncytial virus, genotype A “Long” strain RSV, MOI 0.1, CPE protection, read-out: Human RSV-A (“Long”)
# In short: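 Compound effect on RSV-induced CPE: Hep-2 monolayers, MOI 0.1, duplicate 2-fold titrations, 5-day culture in 10% FBS DMEM. Readout is ATP-based luminescence, normalised to virus-only and no-virus controls, giving EC50.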
row,Structure (SMILES),EC50
1,C[C@]1(C(N)=O)COc2c1cc([C@@](O)(CNC(=O)c1ccoc1)C(F)(F)F)nc2-c1ccc(F)cc1 [Example 363],> 200 nM
2,C[C@]1(C(N)=O)COc2c1cc([C@@](O)(CNC(=O)c1ccno1)C(F)(F)F)nc2-c1ccc(F)cc1 [Example 364],> 200 nM
3,C[C@]1(C(N)=O)COc2c1cc([C@@](O)(CNC(=O)c1cnc3[nH]cnc3c1)C(F)(F)F)nc2-c1ccc(F)cc1 [Example 365],> 200 nM
4,C[C@]1(C(N)=O)COc2c1cc([C@@](O)(CNC(=O)c1cnc3ccc(F)cn13)C(F)(F)F)nc2-c1ccc(F)cc1 [Example 367],> 200 nM
5,C[C@]1(C(N)=O)COc2c1cc([C@@](O)(CNC(=O)c1cc3ccccc3s1)C(F)(F)F)nc2-c1ccc(F)cc1 [Example 368],> 200 nM
6,C[C@]1(C(N)=O)COc2c1cc([C@@](O)(CNC(=O)c1cc3ncccc3s1)C(F)(F)F)nc2-c1ccc(F)cc1 [Example 371],> 200 nM
7,C[C@]1(C(N)=O)COc2c1cc([C@@](O)(CNC(=O)c1cc(=O)[nH]c(C3CC3)n1)C(F)(F)F)nc2-c1ccc(F)cc1 [Example 372],> 200 nM
8,Cn1cc(C(=O)NC[C@](O)(c2cc3c(c(-c4ccc(F)cc4)n2)OC[C@]3(C)C(N)=O)C(F)(F)F)c2ccccc21 [Example 373],> 200 nM
9,C[C@]1(C(N)=O)COc2c1cc([C@@](O)(CNC(=O)c1cnc3nccn3c1)C(F)(F)F)nc2-c1ccc(F)cc1 [Example 374],> 200 nM
10,Cc1nc2cc(C(=O)NC[C@](O)(c3cc4c(c(-c5ccc(F)cc5)n3)OC[C@]4(C)C(N)=O)C(F)(F)F)ccc2o1 [Example 375],> 200 nM
11,C[C@]1(C(N)=O)COc2c1cc([C@@](O)(CNC(=O)c1csc3ccccc13)C(F)(F)F)nc2-c1ccc(F)cc1 [Example 376],> 200 nM
12,C[C@]1(C(N)=O)COc2c1cc([C@@](O)(CNC(=O)c1cc3cccnc3s1)C(F)(F)F)nc2-c1ccc(F)cc1 [Example 377],> 200 nM
13,C[C@]1(C(N)=O)COc2c1cc([C@@](O)(CNC(=O)c1cc3ccccc3o1)C(F)(F)F)nc2-c1ccc(F)cc1 [Example 378],> 200 nM
14,C[C@]1(C(N)=O)COc2c1cc([C@@](O)(CNC(=O)c1cc3cccc(F)c3s1)C(F)(F)F)nc2-c1ccc(F)cc1 [Example 379],> 200 nM
15,Cc1cc(C(=O)NC[C@](O)(c2cc3c(c(-c4ccc(F)cc4)n2)OC[C@]3(C)C(N)=O)C(F)(F)F)no1 [Example 381],> 200 nM
16,C[C@]1(C(N)=O)COc2c1cc([C@@](O)(CNC(=O)c1cccc3c1OCO3)C(F)(F)F)nc2-c1ccc(F)cc1 [Example 382],> 200 nM
17,C[C@]1(C(N)=O)COc2c1cc([C@@](O)(CNC(=O)c1c[nH]c3cccnc13)C(F)(F)F)nc2-c1ccc(F)cc1 [Example 383],> 200 nM
18,C[C@]1(C(N)=O)COc2c1cc([C@@](O)(CNC(=O)c1cc3cc[nH]c3cn1)C(F)(F)F)nc2-c1ccc(F)cc1 [Example 384],> 200 nM
19,Cc1ccc2cc(C(=O)NC[C@](O)(c3cc4c(c(-c5ccc(F)cc5)n3)OC[C@]4(C)C(N)=O)C(F)(F)F)[nH]c2c1 [Example 385],> 200 nM
20,Cc1ccsc1C(=O)NC[C@](O)(c1cc2c(c(-c3ccc(F)cc3)n1)OC[C@]2(C)C(N)=O)C(F)(F)F [Example 386],> 200 nM
21,C[C@]1(C(N)=O)COc2c1cc([C@@](O)(CNC(=O)c1cc3[nH]ccc3cc1F)C(F)(F)F)nc2-c1ccc(F)cc1 [Example 387],> 200 nM

row,Structure (SMILES),EC50
1,C[C@]1(C(N)=O)COc2c1cc([C@@](O)(CNC(=O)c1nccc3[nH]ccc13)C(F)(F)F)nc2-c1ccc(F)cc1 [Example 388],> 200 nM
2,C[C@]1(C(N)=O)COc2c1cc([C@@](O)(CNC(=O)c1cncs1)C(F)(F)F)nc2-c1ccc(F)cc1 [Example 389],> 200 nM
3,Cc1cnc(C(=O)NC[C@](O)(c2cc3c(c(-c4ccc(F)cc4)n2)OC[C@]3(C)C(N)=O)C(F)(F)F)cn1 [Example 390],> 200 nM
4,C[C@]1(C(N)=O)COc2c1cc([C@@](O)(CNC(=O)c1ccc[nH]1)C(F)(F)F)nc2-c1ccc(F)cc1 [Example 391],> 200 nM
5,C[C@]1(C(N)=O)COc2c1cc([C@@](O)(CNC(=O)c1cc3ccccn3n1)C(F)(F)F)nc2-c1ccc(F)cc1 [Example 392],> 200 nM
6,C[C@]1(C(N)=O)COc2c1cc([C@@](O)(CNC(=O)c1n[nH]c3ncccc13)C(F)(F)F)nc2-c1ccc(F)cc1 [Example 393],> 200 nM
7,COc1ccc2nc(C(=O)NC[C@](O)(c3cc4c(c(-c5ccc(F)cc5)n3)OC[C@]4(C)C(N)=O)C(F)(F)F)sc2c1 [Example 394],> 200 nM
8,COc1cccc2[nH]nc(C(=O)NC[C@](O)(c3cc4c(c(-c5ccc(F)cc5)n3)OC[C@]4(C)C(N)=O)C(F)(F)F)c12 [Example 395],> 200 nM
9,C[C@]1(C(N)=O)COc2c1cc([C@@](O)(CNC(=O)c1nccs1)C(F)(F)F)nc2-c1ccc(F)cc1 [Example 396],> 200 nM
10,C[C@]1(C(N)=O)COc2c1cc([C@@](O)(CNC(=O)c1n[nH]c3ccc(F)cc13)C(F)(F)F)nc2-c1ccc(F)cc1 [Example 397],> 200 nM
11,Cc1ccc2nc(C(=O)NC[C@](O)(c3cc4c(c(-c5ccc(F)cc5)n3)OC[C@]4(C)C(N)=O)C(F)(F)F)cn2c1 [Example 398],> 200 nM
12,C[C@]1(C(N)=O)COc2c1cc([C@@](O)(CNC(=O)c1ccnc3ccccc13)C(F)(F)F)nc2-c1ccc(F)cc1 [Example 399],> 200 nM
13,C[C@]1(C(N)=O)COc2c1cc([C@@](O)(CNC(=O)c1cc3cc[nH]c3cc1F)C(F)(F)F)nc2-c1ccc(F)cc1 [Example 400],> 200 nM
14,Cn1c(C(=O)NC[C@](O)(c2cc3c(c(-c4ccc(F)cc4)n2)OC[C@]3(C)C(N)=O)C(F)(F)F)cc2ccccc21 [Example 401],> 200 nM
15,C[C@]1(C(N)=O)COc2c1cc([C@@](O)(CNC(=O)c1ccn3ccnc3c1)C(F)(F)F)nc2-c1ccc(F)cc1 [Example 402],> 200 nM
16,C[C@]1(C(N)=O)COc2c1cc([C@@](O)(CNC(=O)c1ccc3[nH]ncc3n1)C(F)(F)F)nc2-c1ccc(F)cc1 [Example 403],> 200 nM
17,C[C@]1(C(N)=O)COc2c1cc([C@@](O)(CNC(=O)c1ccco1)C(F)(F)F)nc2-c1ccc(F)cc1 [Example 404],> 200 nM
18,C[C@]1(C(N)=O)COc2c1cc([C@@](O)(CNC(=O)c1nc3cc(F)ccc3[nH]1)C(F)(F)F)nc2-c1ccc(F)cc1 [Example 405],> 200 nM
19,C[C@]1(C(N)=O)COc2c1cc([C@@](O)(CNC(=O)c1ccnnc1)C(F)(F)F)nc2-c1ccc(F)cc1 [Example 406],> 200 nM
20,Cn1ccc(C(=O)NC[C@](O)(c2cc3c(c(-c4ccc(F)cc4)n2)OC[C@]3(C)C(N)=O)C(F)(F)F)c1 [Example 407],> 200 nM

# Continued, values first:
row,EC50,Structure (SMILES)
1,> 200 nM,C[C@]1(C(N)=O)COc2c1cc([C@@](O)(CNC(=O)c1ccc3ccsc3c1)C(F)(F)F)nc2-c1ccc(F)cc1 [Example 346]
2,> 200 nM,C[C@]1(C(N)=O)COc2c1cc([C@@](O)(CNC(=O)c1c[nH]c3ncc(C(F)(F)F)cc13)C(F)(F)F)nc2-c1ccc(F)cc1 [Example 347]
3,< 200 nM,C[C@]1(C(N)=O)COc2c1cc([C@@](O)(CNC(=O)c1ccc(F)c3cc[nH]c13)C(F)(F)F)nc2-c1ccc(F)cc1 [Example 348]
4,> 200 nM,C[C@]1(C(N)=O)COc2c1cc([C@@](O)(CNC(=O)c1cc[nH]c1)C(F)(F)F)nc2-c1ccc(F)cc1 [Example 349]
5,> 200 nM,C[C@]1(C(N)=O)COc2c1cc([C@@](O)(CNC(=O)c1c[nH]c3c(Cl)cccc13)C(F)(F)F)nc2-c1ccc(F)cc1 [Example 350]
6,> 200 nM,C[C@]1(C(N)=O)COc2c1cc([C@@](O)(CNC(=O)c1c[nH]c3nccnc13)C(F)(F)F)nc2-c1ccc(F)cc1 [Example 351]
7,> 200 nM,C[C@]1(C(N)=O)COc2c1cc([C@@](O)(CNC(=O)c1c[nH]c3ccccc13)C(F)(F)F)nc2-c1ccc(F)cc1 [Example 352]
8,> 200 nM,C[C@]1(C(N)=O)COc2c1cc([C@@](O)(CNC(=O)c1c[nH]c3ncc(F)cc13)C(F)(F)F)nc2-c1ccc(F)cc1 [Example 353]
9,> 200 nM,Cc1cc(C(=O)NC[C@](O)(c2cc3c(c(-c4ccc(F)cc4)n2)OC[C@]3(C)C(N)=O)C(F)(F)F)n[nH]1 [Example 355]
10,> 200 nM,Cc1oncc1C(=O)NC[C@](O)(c1cc2c(c(-c3ccc(F)cc3)n1)OC[C@]2(C)C(N)=O)C(F)(F)F [Example 356]
11,> 200 nM,C[C@]1(C(N)=O)COc2c1cc([C@@](O)(CNC(=O)c1ccc3sccc3c1)C(F)(F)F)nc2-c1ccc(F)cc1 [Example 357]
12,> 200 nM,Cc1ccn2ncc(C(=O)NC[C@](O)(c3cc4c(c(-c5ccc(F)cc5)n3)OC[C@]4(C)C(N)=O)C(F)(F)F)c2n1 [Example 358]
13,> 200 nM,C[C@]1(C(N)=O)COc2c1cc([C@@](O)(CNC(=O)c1ccc3cc[nH]c3c1F)C(F)(F)F)nc2-c1ccc(F)cc1 [Example 359]
14,> 200 nM,C[C@]1(C(N)=O)COc2c1cc([C@@](O)(CNC(=O)c1cccc3nccn13)C(F)(F)F)nc2-c1ccc(F)cc1 [Example 360]
15,> 200 nM,Cc1ccn2c(C(=O)NC[C@](O)(c3cc4c(c(-c5ccc(F)cc5)n3)OC[C@]4(C)C(N)=O)C(F)(F)F)c(C)nc2c1 [Example 361]
16,> 200 nM,Cc1cc[nH]c1C(=O)NC[C@](O)(c1cc2c(c(-c3ccc(F)cc3)n1)OC[C@]2(C)C(N)=O)C(F)(F)F [Example 362]
17,< 200 nM,C[C@]1(C(N)=O)COc2c1cc([C@@](O)(CNC(=O)c1cccc3cc[nH]c13)C(F)(F)F)nc2-c1ccc(F)cc1 [Example 366]
18,< 200 nM,C[C@]1(C(N)=O)COc2c1cc([C@@](O)(CNC(=O)c1ccnc3[nH]ccc13)C(F)(F)F)nc2-c1ccc(F)cc1 [Example 369]
19,< 200 nM,C[C@]1(C(N)=O)COc2c1cc([C@@](O)(CNC(=O)c1cc3cnccc3[nH]1)C(F)(F)F)nc2-c1ccc(F)cc1 [Example 370]
20,< 200 nM,C[C@]1(C(N)=O)COc2c1cc([C@@](O)(CNC(=O)c1cnc3[nH]ccc3c1)C(F)(F)F)nc2-c1ccc(F)cc1 [Example 380]
